Results on ten molecules are retold here after US20230292744A1, “FLYING PEST CONTROL COMPOSITION AND FLYING PEST CONTROL SPRAY” (Kao Corporation, priority 2019, published 2023).

Holding throughout (type): physicochemical
The nature of series [1]: Surface tension at 25° C. by the Wilhelmy method. The following applies: 3 mmol/kg aqueous solution of the wetting agent, value 10 minutes after immersion. The source says: With respect to respective wetting agents described in Table 1, one obtained by dissolving each wetting agent in water to prepare an aqueous solution having a concentration of 3 mmol/kg was used as a measurement sample. With respect to a flying pest exterminating composition described of each of the Examples, the foregoing composition was used as it was as a measurement sample. These measurement samples were each poured into a glass-made Petri dish having a diameter of 6.4 cm and a depth of 3.8 cm, and after removing air bubbles on the water surface, the measurement was performed in the state that the resulting sample was allowed to stand still for 30 minutes or more. In the present measurement, using a surface tension balance “K100” (manufactured by KRÜSS GmbH), a platinum plate was kept immersed in the aforementioned aqueous solution in a depth of 1 mm, and a measured value 10 minutes after the immersion was taken as a value of the surface tension.

The subject of series [2] is Wings of Aedes albopictus (female). The experiment in a line: Contact angle against wings of mosquito. As to conditions: 0.5 μL of 3 mmol/kg aqueous solution, 25° C., one second after dropping, θ/2 method. From the text:
Wings of Aedes albopictus (female) were collected, and 8 to 10 pieces of the collected wings were arranged without generating gaps on a double-sided tape (“NITTO TAPE”, manufactured by Nitto Denko Corporation).

A short description of series [3]: Reach amount of sprayed droplets. As to conditions: spray container A, horizontal distance 30 cm, per spraying (five trigger operations). How it is done:
A spray in which a 3 mmol/kg aqueous solution of the wetting agent shown in Table 1 was filled in a spray container A shown in Table 2 was prepared.
In the evaluation method described in the preceding section, one in which instead of the mesh net (3), a paper towel (“Kim Towel White”, manufactured by Nippon Paper Crecia Co., Ltd.) cut into a size of 6 cm×6 cm was stuck to the front face (11) of the frame (1) with a double-sided tape was prepared. Before the evaluation, the total weight of the frame (1) and the paper towel was measured, and then, the spray was fixed at a position where the horizontal distance d until the front face (11) of the frame (1) was 30 cm such that the tip of the spray nozzle (that is, the ejection port) (41) of the spray container (4) reached, and the trigger operation was performed five times toward the inside of the frame (1) to spray the aqueous solution. After spraying, the weights of the frame (1) and the paper towel were measured, and a reach amount of the sprayed droplets per spraying was calculated according to the following calculation equation.
(Reach amount of sprayed droplets (mg/cm^2 per time)={(Weights of frame and paper towel after spraying)−(Weights of frame and paper towel before spraying)}/(Area (36 cm^2) of paper towel)/(Spraying time (five times))
It can be judged that the wetting agent is one in which the larger the reach amount of sprayed droplets, the higher the straightness of the spray droplets when used for the flying pest exterminating composition, and the more excellent the action of capable of efficiently reaching the flying pests.

`CCCCC(CC)COCC(O)CO` (stereo not drawn) [e, 2-Ethylhexyl glyceryl ether]: the “25° C. surface tension” value in series [1] came to 38.30 mN/m. Also, in series [2], the “Contact angle against wing of mosquito” value turned out to be 79.1 °. In addition, the “Reach amount of sprayed droplets of 3 mmol/kg aqueous solution” value (“Reach amount” below) in series [3] is 1.7 mg/cm^2.
In the case of `CCCCCCCCCCCCOS(=O)(=O)[O-].[Na+]` [g, Sodium lauryl sulfate], the “25° C. surface tension” value in series [1] is 29.20 mN/m. Moreover, in series [2], the “Contact angle against wing of mosquito” value worked out at 111.0 °. Further, the “Reach amount” value in series [3] is 5.7 mg/cm^2.
As to Benzalkonium chloride, the “25° C. surface tension” value in series [1] is reported as 32.68 mN/m. The “Contact angle against wing of mosquito” value in series [2] is on record as 80.0 °. The “Reach amount” value in series [3] worked out at 3.1 mg/cm^2.
Take C10-C14 alkyl glucoside [b]: the “25° C. surface tension” value in series [1] is 29.61 mN/m. Further, in series [2], the “Contact angle against wing of mosquito” value is 55.0 °. Moreover, the “Reach amount” value in series [3] was 1.7 mg/cm^2.
As for Polyoxyethylene(3) lauryl ether [i], in series [1], the “25° C. surface tension” value came to 26.13 mN/m. The “Contact angle against wing of mosquito” value in series [2] was 54.0 °. Besides, the “Reach amount” value in series [3] was found to be 0.2 mg/cm^2.
For Polyoxyethylene(5) lauryl ether, in that order: 27.34 mN/m, 38.6 ° and 0.5 mg/cm^2.
On to Polyoxyethylene(9) lauryl ether [c], for which the “25° C. surface tension” value in series [1] is on record as 31.82 mN/m. In series [2], the “Contact angle against wing of mosquito” value came to 64.8 °. In series [3], the “Reach amount” value turned out to be 2.4 mg/cm^2.
For Polyoxyethylene(12) lauryl ether [d], in that order: 36.09 mN/m, 71.9 ° and 2.6 mg/cm^2.
In the case of Polyoxyethylene(19) lauryl ether [f], the “25° C. surface tension” value in series [1] was found to be 42.13 mN/m. Further, in series [2], the “Contact angle against wing of mosquito” value was 113.8 °. In addition, the “Reach amount” value in series [3] turned out to be 3.2 mg/cm^2.
On to Polyoxyethylene(47) lauryl ether [j], for which, in series [1], the “25° C. surface tension” value worked out at 50.54 mN/m. The “Contact angle against wing of mosquito” value in series [2] amounted to 116.4 °. The “Reach amount” value in series [3] was found to be 6.1 mg/cm^2.
